Source: patent US20260327204A1, “DEGRADERS OF CYCLIN-DEPENDENT KINASE 12/13, COMPOSITIONS, AND USES THEREOF” (ZHEJIANG UNIVERSITY, priority 2023, published 2026)

Key:
CDK13 = CDK13 (Homo sapiens, UniProt Q14004); experiment: Western blot degradation of CDK13 (Example 3); type: cell-based; parameters: degradation of CDK12/13 protein in leukemia cells KASUMI-1, MV4-11, and Jurkat; endogenous in cells; settings: DC50 classes; cell line not given; read-out: CDK13 degradation Activity
CDK12 = CDK12 (Homo sapiens, UniProt Q9NYV4); experiment: Western blot degradation of CDK12 (Example 3); type: cell-based; parameters: degradation of CDK12/13 protein in leukemia cells KASUMI-1, MV4-11, and Jurkat; endogenous in cells; settings: DC50 classes; cell line not given; read-out: CDK12 degradation Activity
Sequence of CDK12 (Q9NYV4 whole entry): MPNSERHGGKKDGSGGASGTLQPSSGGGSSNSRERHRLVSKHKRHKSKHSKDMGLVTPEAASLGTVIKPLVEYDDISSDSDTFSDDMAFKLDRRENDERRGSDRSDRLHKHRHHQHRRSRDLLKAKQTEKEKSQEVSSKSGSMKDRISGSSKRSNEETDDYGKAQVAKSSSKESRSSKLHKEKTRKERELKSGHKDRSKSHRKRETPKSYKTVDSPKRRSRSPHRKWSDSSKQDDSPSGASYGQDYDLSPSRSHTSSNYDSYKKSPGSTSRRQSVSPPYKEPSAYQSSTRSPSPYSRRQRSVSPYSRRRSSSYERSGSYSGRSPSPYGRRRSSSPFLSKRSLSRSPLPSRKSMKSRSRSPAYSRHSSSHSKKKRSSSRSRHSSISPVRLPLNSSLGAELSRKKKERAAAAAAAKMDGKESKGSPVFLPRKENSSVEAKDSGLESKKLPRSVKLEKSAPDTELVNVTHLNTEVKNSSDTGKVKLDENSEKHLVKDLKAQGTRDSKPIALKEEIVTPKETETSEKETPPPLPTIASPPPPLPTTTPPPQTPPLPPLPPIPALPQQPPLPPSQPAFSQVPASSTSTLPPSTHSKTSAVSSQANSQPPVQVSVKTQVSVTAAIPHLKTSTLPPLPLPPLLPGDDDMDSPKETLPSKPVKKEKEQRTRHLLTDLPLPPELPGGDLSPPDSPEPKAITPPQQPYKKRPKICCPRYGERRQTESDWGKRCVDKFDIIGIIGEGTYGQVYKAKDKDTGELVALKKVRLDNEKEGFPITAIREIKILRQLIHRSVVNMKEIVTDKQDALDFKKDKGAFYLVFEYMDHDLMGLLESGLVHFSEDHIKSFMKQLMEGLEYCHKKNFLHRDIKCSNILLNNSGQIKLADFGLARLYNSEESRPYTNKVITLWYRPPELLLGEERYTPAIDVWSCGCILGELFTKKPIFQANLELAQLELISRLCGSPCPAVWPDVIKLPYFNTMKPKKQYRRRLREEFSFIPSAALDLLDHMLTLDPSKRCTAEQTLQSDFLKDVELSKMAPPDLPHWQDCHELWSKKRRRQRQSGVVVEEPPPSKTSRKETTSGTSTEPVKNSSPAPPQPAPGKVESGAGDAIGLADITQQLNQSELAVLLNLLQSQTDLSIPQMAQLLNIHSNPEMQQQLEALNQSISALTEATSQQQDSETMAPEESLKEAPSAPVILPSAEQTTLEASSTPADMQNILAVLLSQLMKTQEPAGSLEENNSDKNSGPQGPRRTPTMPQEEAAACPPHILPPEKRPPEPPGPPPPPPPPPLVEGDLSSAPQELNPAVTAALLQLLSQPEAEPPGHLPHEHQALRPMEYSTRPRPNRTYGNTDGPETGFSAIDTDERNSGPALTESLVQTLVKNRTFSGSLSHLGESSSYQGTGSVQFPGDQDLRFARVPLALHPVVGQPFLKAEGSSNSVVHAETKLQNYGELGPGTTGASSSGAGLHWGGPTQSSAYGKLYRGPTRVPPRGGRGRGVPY
Sequence of CDK12 (O75909 whole entry partner): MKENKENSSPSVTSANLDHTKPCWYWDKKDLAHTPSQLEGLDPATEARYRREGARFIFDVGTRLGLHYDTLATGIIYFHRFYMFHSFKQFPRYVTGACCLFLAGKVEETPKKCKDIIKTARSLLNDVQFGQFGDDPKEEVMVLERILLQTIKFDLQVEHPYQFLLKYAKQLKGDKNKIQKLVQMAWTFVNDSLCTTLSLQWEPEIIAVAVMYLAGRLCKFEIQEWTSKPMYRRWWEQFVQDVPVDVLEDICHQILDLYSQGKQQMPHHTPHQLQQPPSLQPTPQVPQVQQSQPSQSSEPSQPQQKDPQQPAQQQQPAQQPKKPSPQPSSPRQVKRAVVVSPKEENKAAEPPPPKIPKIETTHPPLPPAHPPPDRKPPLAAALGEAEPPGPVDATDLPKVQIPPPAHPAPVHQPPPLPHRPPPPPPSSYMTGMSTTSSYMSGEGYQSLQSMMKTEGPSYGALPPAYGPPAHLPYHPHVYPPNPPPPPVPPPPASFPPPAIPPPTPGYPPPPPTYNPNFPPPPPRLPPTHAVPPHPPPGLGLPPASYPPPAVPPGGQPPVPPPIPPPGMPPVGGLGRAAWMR

Sequence of CDK13 (Q14004 whole entry): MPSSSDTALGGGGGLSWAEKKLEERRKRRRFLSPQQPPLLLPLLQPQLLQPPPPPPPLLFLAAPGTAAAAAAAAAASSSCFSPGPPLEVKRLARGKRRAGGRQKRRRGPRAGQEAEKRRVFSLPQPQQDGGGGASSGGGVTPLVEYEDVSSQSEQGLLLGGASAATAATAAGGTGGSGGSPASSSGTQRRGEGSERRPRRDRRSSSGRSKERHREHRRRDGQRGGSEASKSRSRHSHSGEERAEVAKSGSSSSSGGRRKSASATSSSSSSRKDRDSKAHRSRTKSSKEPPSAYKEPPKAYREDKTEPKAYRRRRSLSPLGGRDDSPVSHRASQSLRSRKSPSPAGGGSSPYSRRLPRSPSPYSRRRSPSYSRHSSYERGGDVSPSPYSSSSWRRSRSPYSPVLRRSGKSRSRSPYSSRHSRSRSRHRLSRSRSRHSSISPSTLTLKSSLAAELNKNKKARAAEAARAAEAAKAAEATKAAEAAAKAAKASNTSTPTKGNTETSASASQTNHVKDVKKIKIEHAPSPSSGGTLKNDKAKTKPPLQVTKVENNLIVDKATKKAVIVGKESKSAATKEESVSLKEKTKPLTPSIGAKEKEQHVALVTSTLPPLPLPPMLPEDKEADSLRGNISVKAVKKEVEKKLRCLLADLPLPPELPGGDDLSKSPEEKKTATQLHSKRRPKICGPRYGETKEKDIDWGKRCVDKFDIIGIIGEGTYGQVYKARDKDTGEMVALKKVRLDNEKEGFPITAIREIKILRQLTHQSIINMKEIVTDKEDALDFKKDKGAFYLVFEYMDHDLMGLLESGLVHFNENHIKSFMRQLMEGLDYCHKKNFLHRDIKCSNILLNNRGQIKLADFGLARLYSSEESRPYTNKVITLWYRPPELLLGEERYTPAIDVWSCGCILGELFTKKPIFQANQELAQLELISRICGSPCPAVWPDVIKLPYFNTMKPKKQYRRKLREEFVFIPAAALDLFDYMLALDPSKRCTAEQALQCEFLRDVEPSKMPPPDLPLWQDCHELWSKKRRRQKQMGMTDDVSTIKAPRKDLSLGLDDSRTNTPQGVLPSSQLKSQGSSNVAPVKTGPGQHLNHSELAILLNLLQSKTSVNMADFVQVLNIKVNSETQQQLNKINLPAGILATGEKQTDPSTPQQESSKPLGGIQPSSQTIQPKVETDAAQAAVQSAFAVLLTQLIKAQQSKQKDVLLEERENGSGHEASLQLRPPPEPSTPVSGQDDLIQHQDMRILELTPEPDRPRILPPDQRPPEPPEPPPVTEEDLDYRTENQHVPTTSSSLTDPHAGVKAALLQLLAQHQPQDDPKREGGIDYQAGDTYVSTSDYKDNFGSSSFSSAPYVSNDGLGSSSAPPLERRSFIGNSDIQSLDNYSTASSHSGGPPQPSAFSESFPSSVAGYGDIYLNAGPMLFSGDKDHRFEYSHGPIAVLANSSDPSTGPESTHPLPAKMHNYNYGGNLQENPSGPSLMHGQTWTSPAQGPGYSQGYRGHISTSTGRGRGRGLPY
Sequence of CDK13 (O75909 whole entry partner): as the sequence (O75909 whole entry partner) above

| SMILES | DC50 (CDK13) | DC50 (CDK12) |
| --- | --- | --- |
| CC(=O)N(c1ccc(-c2cnn(CC3CN(CC(=O)N[C@H](C(=O)N4C[C@H](O)C[C@H]4C(=O)N[C@@H](C)c4ccc(-c5scnc5C)cc4)C(C)(C)C)C3)c2)cc1)[C@H]1CC[C@H](Nc2ncc3ccccc3n2)CC1 (stereo in doubt) [Formula 140, (2S,4R)-1-((R)-3,3-dimethyl-2-(2-(3-((4-(4-(N-((1R,4R)-4-(quinazolin-2-ylamino)cyclohexyl)acetamido)phenyl)-1H-pyrazol-1-yl)methyl)azetidin-1-yl)acetamido)butanoyl)-4-hydroxy-N—((R)-1-(4-(4-methylthiazol-5-yl)phenyl)ethyl)pyrrolidine-2-carboxamide] | 500 to 1000 nM | 1000 to 3000 nM |
| CC(=O)N(c1ccc(N2CCN(C(=O)CNc3ccc4c(c3)C(=O)N(C3CCC(=O)NC3=O)C4=O)CC2)cc1)[C@H]1CC[C@H](Nc2ncc3ccccc3n2)CC1 (stereo partly drawn) [Formula 101, N-(4-(4-((2-(2,6-dioxopiperidin-3-yl)-1,3-dioxoisoindolin-5-yl)aminoacetyl)piperazin-1-yl)phenyl)-N-((1R,4R)-4-(quinazolin-2-ylamino)cyclohexyl)acetamide] | 1000 to 3000 nM | 1000 to 3000 nM |
| CC(=O)N(c1ccc(-c2ccc(CN3CCN(c4ccc5c(c4)C(=O)N(C4CCC(=O)NC4=O)C5=O)CC3)nc2)cc1)[C@H]1CC[C@H](Nc2ncc3ccccc3n2)CC1 (stereo partly drawn) [Formula 102, N-(4-(6-((4-(2-(2,6-dioxopiperidin-3-yl)-1,3-dioxoisoindolin-5-yl)piperazin-1-yl)methyl)pyridin-3-yl)phenyl)-N-((1R,4R)-4-(quinazolin-2-ylamino)cyclohexyl)acetamide] | 100 to 500 nM | 500 to 1000 nM |
| CC(=O)N(c1ccc(N2CCN(c3ccc4c(c3)C(=O)N(C3CCC(=O)NC3=O)C4=O)CC2)cc1)[C@H]1CC[C@H](Nc2ncc3ccccc3n2)CC1 (stereo partly drawn) [Formula 104, N-(4-(4-(2-(2,6-dioxopiperidin-3-yl)-1,3-dioxoisoindolin-5-yl)piperazin-1-yl)phenyl)-N-((1R,4R)-4-(quinazolin-2-ylamino)cyclohexyl)acetamide] | 3000 to 10000 nM | 3000 to 10000 nM |
| CC(=O)N(c1ccc(N2CCN(CC3CCN(c4ccc5c(c4)C(=O)N(C4CCC(=O)NC4=O)C5=O)CC3)CC2)cc1)[C@H]1CC[C@H](Nc2ncc3ccccc3n2)CC1 (stereo partly shown) [Formula 106] | 500 to 1000 nM | 500 to 1000 nM |
| CC(=O)N(c1ccc(-c2cnc(N3CCN(c4ccc5c(c4)C(=O)N(C4CCC(=O)NC4=O)C5=O)CC3)nc2)cc1)[C@H]1CC[C@H](Nc2ncc3ccccc3n2)CC1 (stereo partly shown) [Formula 107] | < 100 nM | < 100 nM |
| CC(=O)N(c1ccc(-c2cnc(OC3CN(c4ccc5c(c4)C(=O)N(C4CCC(=O)NC4=O)C5=O)C3)nc2)cc1)[C@H]1CC[C@H](Nc2ncc3ccccc3n2)CC1 (stereo partly drawn) [Formula 108, N-(4-(2-((1-(2-(2,6-dioxopiperidin-3-yl)-1,3-dioxoisoindolin-5-yl)azetidin-3-yl)oxy)pyrimidin-5-yl)phenyl)-N-((1R,4R)-4-(quinazolin-2-ylamino)cyclohexyl)acetamide] | 100 to 500 nM | 100 to 500 nM |
| CC(=O)N(c1ccc(-c2ccn(CC3CN(c4ccc5c(c4)C(=O)N(C4CCC(=O)NC4=O)C5=O)C3)c(=O)c2)cc1)[C@H]1CC[C@H](Nc2ncc3ccccc3n2)CC1 (stereo partly drawn) [Formula 112, N-(4-(1-((1-(2-(2,6-dioxopiperidin-3-yl)-1,3-dioxoisoindolin-5-yl)azetidin-3-yl)methyl)-2-oxo-1,2-dihydropyridin-4-yl)phenyl)-N-((1R,4R)-4-(quinazolin-2-ylamino)cyclohexyl)acetamide] | 100 to 500 nM | 100 to 500 nM |
| CC(=O)N(c1ccc(-c2cnc(N3CCN(c4cc5c(cc4F)C(=O)N(C4CCC(=O)NC4=O)C5=O)CC3)nc2)cc1)[C@H]1CC[C@H](Nc2ncc3ccccc3n2)CC1 (stereo partly drawn) [Formula 114, N-(4-(2-(4-(2-(2,6-dioxopiperidin-3-yl)-6-fluoro-1,3-dioxoisoindolin-5-yl)piperazin-1-yl)pyrimidin-5-yl)phenyl)-N-((1R,4R)-4-(quinazolin-2-ylamino)cyclohexyl)acetamide] | 1000 to 3000 nM | 1000 to 3000 nM |
| CC(=O)N(c1ccc(N2CCN(C(=O)/C=C/c3ccc4c(c3)C(=O)N(C3CCC(=O)NC3=O)C4=O)CC2)cc1)[C@H]1CC[C@H](Nc2ncc3ccccc3n2)CC1 (stereo partly drawn) [Formula 118, N-(4-(4-((E)-3-(2-(2,6-dioxopiperidin-3-yl)-1,3-dioxoisoindolin-5-yl)acryloyl)piperazin-1-yl)phenyl)-N-((1R,4R)-4-(quinazolin-2-ylamino)cyclohexyl)acetamide] | 500 to 1000 nM | 1000 to 3000 nM |
| CC(=O)N(c1ccc(N2CCC3(CC2)CCN(c2ccc4c(c2)C(=O)N(C2CCC(=O)NC2=O)C4=O)CC3)cc1)[C@H]1CC[C@H](Nc2ncc3ccccc3n2)CC1 (stereo partly drawn) [Formula 120, N-(4-(9-(2-(2,6-dioxopiperidin-3-yl)-1,3-dioxoisoindolin-5-yl)-3,9-diazaspiro[5.5]undecan-3-yl)phenyl)-N-((1R,4R)-4-(quinazolin-2-ylamino)cyclohexyl)acetamide] | 3000 to 10000 nM | 3000 to 10000 nM |
| CC(=O)N(c1ccc(N2CCN(C3CCN(c4ccc5c(c4)C(=O)N(C4CCC(=O)NC4=O)C5=O)CC3)CC2)cc1)[C@H]1CC[C@H](Nc2ncc3ccccc3n2)CC1 (stereo partly drawn) [Formula 123, N-(4-(4-(1-(2-(2,6-dioxopiperidin-3-yl)-1,3-dioxoisoindolin-5-yl)piperidin-4-yl)piperazin-1-yl)phenyl)-N-((1R,4R)-4-(quinazolin-2-ylamino)cyclohexyl)acetamide] | 500 to 1000 nM | 100 to 500 nM |
| CC(=O)N(c1ccc(N2CCN(C3CN(c4ccc5c(c4)C(=O)N(C4CCC(=O)NC4=O)C5=O)C3)CC2)cc1)[C@H]1CC[C@H](Nc2ncc3ccccc3n2)CC1 (stereo partly drawn) [Formula 124, N-(4-(4-(1-(2-(2,6-dioxopiperidin-3-yl)-1,3-dioxoisoindolin-5-yl)azetidin-3-yl)piperazin-1-yl)phenyl)-N-((1R,4R)-4-(quinazolin-2-ylamino)cyclohexyl)acetamide] | 1000 to 3000 nM | 1000 to 3000 nM |

Second part, the compound after the results:

| DC50 (CDK13) | DC50 (CDK12) | SMILES |
| --- | --- | --- |
| 100 to 500 nM | 100 to 500 nM | CC(=O)N(c1ccc(-c2cnc(O[C@@H]3CCN(c4ccc5c(c4)C(=O)N(C4CCC(=O)NC4=O)C5=O)C3)nc2)cc1)[C@H]1CC[C@H](Nc2ncc3ccccc3n2)CC1 (stereo partly drawn) [Formula 109, N-(4-(2-(((3R)-1-(2-(2,6-dioxopiperidin-3-yl)-1,3-dioxoisoindolin-5-yl)pyrrolidin-3-yl)oxy)pyrimidin-5-yl)phenyl)-N-((1R,4R)-4-(quinazolin-2-ylamino)cyclohexyl)acetamide] |
| 500 to 1000 nM | 1000 to 3000 nM | CC(=O)N(c1ccc(-c2cnc(O[C@H]3CCN(c4ccc5c(c4)C(=O)N(C4CCC(=O)NC4=O)C5=O)C3)nc2)cc1)[C@H]1CC[C@H](Nc2ncc3ccccc3n2)CC1 (stereo partly drawn) [Formula 110, N-(4-(2-(((3S)-1-(2-(2,6-dioxopiperidin-3-yl)-1,3-dioxoisoindolin-5-yl)pyrrolidin-3-yl)oxy)pyrimidin-5-yl)phenyl)-N-((1R,4R)-4-(quinazolin-2-ylamino)cyclohexyl)acetamide] |
| 1000 to 3000 nM | 1000 to 3000 nM | CC(=O)N(c1ccc(-c2ccn(CC3CCN(c4ccc5c(c4)C(=O)N(C4CCC(=O)NC4=O)C5=O)CC3)c(=O)c2)cc1)[C@H]1CC[C@H](Nc2ncc3ccccc3n2)CC1 (stereo partly drawn) [Formula 111, N-(4-(1-((1-(2-(2,6-dioxopiperidin-3-yl)-1,3-dioxoisoindolin-5-yl)piperidin-4-yl)methyl)-2-oxo-1,2-dihydropyridin-4-yl)phenyl)-N-((1R,4R)-4-(quinazolin-2-ylamino)cyclohexyl)acetamide] |
| 3000 to 10000 nM | 3000 to 10000 nM | CC(=O)N(c1ccc(-c2cnn(C3CN(c4ccc5c(c4)C(=O)N(C4CCC(=O)NC4=O)C5=O)C3)c2)cc1)[C@H]1CC[C@H](Nc2ncc3ccccc3n2)CC1 (stereo partly drawn) [Formula 113, N-(4-(1-(1-(2-(2,6-dioxopiperidin-3-yl)-1,3-dioxoisoindolin-5-yl)azetidin-3-yl)-1H-pyrazol-4-yl)phenyl)-N-((1R,4R)-4-(quinazolin-2-ylamino)cyclohexyl)acetamide] |
| 1000 to 3000 nM | 1000 to 3000 nM | CC(=O)N(c1ccc(-c2cnn(CC3CN(c4ccc5c(c4)C(=O)N(C4CCC(=O)NC4=O)C5=O)C3)c2)cc1)[C@H]1CC[C@H](Nc2ncc3ccccc3n2)CC1 (stereo partly drawn) [Formula 115, N-(4-(1-((1-(2-(2,6-dioxopiperidin-3-yl)-1,3-dioxoisoindolin-5-yl)azetidin-3-yl)methyl)-1H-pyrazol-4-yl)phenyl)-N-((1R,4R)-4-(quinazolin-2-ylamino)cyclohexyl)acetamide] |
| 3000 to 10000 nM | 3000 to 10000 nM | CC(=O)N(c1ccc(-c2cnn(C3CCN(c4ccc5c(c4)C(=O)N(C4CCC(=O)NC4=O)C5=O)C3)c2)cc1)[C@H]1CC[C@H](Nc2ncc3ccccc3n2)CC1 (stereo partly drawn) [Formula 116, N-(4-(1-(1-(2-(2,6-dioxopiperidin-3-yl)-1,3-dioxoisoindolin-5-yl)pyrrolidin-3-yl)-1H-pyrazol-4-yl)phenyl)-N-((1R,4R)-4-(quinazolin-2-ylamino)cyclohexyl)acetamide] |
| 500 to 1000 nM | 1000 to 3000 nM | CC(=O)N(c1ccc(-c2cnn(C3CCN(c4ccc5c(c4)C(=O)N(C4CCC(=O)NC4=O)C5=O)CC3)c2)cc1)[C@H]1CC[C@H](Nc2ncc3ccccc3n2)CC1 (stereo partly drawn) [Formula 117, N-(4-(1-(1-(2-(2,6-dioxopiperidin-3-yl)-1,3-dioxoisoindolin-5-yl)piperidin-4-yl)-1H-pyrazol-4-yl)phenyl)-N-((1R,4R)-4-(quinazolin-2-ylamino)cyclohexyl)acetamide] |
